The values below come from paper PMC7160832, “Phosphonium Ionic Liquid-Infused Poly(vinyl chloride) Surfaces Possessing Potent Antifouling Properties” (ACS Omega, 2020).

On the set-up of data set [1]: method as in PMID 29518336. Particulars: cited from earlier work.
The subject of the next data set is P. aeruginosa (PA01). The data set is described as follows: MIC and MBC by standardized broth dilution. The class given is cell-based, Pseudomonas aeruginosa. Particulars: for MBC: 99.9% killing; for MBC / MIC: >1000 = beyond tested concentration range; for MIC: 24 h, MHB. On the procedure:
(§1) S. aureus (ATCC 6538) and P. aeruginosa (PA01) were maintained on cryopreservative beads (Microbank) at −80 °C and cultivated in 100 mL of MHB at 37 °C when needed. Overnight broth was centrifuged (3000 rpm, 12 min) and resuspended in PBS to achieve a final inoculum density of approximately 1 × 10^8 cfu mL^–1.
(§2) The microbiological performance of the ionic liquids was assessed using MHB inoculated with S. aureus or P. aeruginosa according to a standardized broth dilution method.[25] A stock solution of 0.2% w/v of ionic liquid was freshly prepared in sterile MHB by stirring at 37 °C until dissolved and then filtered using a sterile 0.22 μm membrane. Serial twofold dilutions were prepared to provide a concentration range of […] to 0.1% w/v. Inoculum was diluted in MHB to produce a final inoculum density of 1 × 10^6 cfu mL^–1, verified by viable count. The inoculum (100 μL) was added to an equal volume of ionic liquid and incubated for 24 h (37 °C, 100 rpm). Positive (100 μL ofMHB/100 μL of inoculum) and negative controls (200 μL of MHB) were included in each assay. A minimum of five replicates of each dilution and controls were included.
(§3) Determination of the MIC was taken as the lowest concentration that produced no visible growth after 24 h incubation.
(Broth dilution looks for growth in wells or tubes with falling amounts of substance.)

For the next data set, the system named is S. aureus (ATCC 6538). Put plainly: MIC and MBC by standardized broth dilution. The class given is cell-based, Staphylococcus aureus. The note with it: for MBC: 99.9% killing; for MBC / MIC: >1000 = beyond tested concentration range; for MIC: 24 h, MHB. As to the method: as §1, §2, §3
In a further data set the test system is P. aeruginosa. On the set-up: method as in PMID 17655912. Particulars: 10^6 cfu mL^–1 P. aeruginosa inoculum, within 6 h, concentrations as low as 0.08 mg/L; cited from earlier work.
The subject of a further data set is equine erythrocytes. Put plainly: Hemolysis assay of PILs. Particulars: for hemolysis: 1 h, 37 °C; for hemolytic activity (in words): concentrations up to 25 μg mL^–1, equine erythrocytes. It is filed as cell-based. As to the method:
To assess the potential of phosphonium-AOT ionic liquids to illicit a hemolytic effect, ionic liquids were assessed for the ability to induce hemolysis of equine erythrocytes according to a previous method.[51] Briefly, 10 mL of fresh defribrinated equine blood was rinsed three times with an equal volume of PBS by centrifugation at 900g for 15 min. Erythrocytes were resuspended in PBS to a concentration of 4% (v/v). Erythrocyte suspension (100 μL) was added to each well of a 96-well microtiter plate and exposed to varying concentrations of ionic liquid for 1 h at 37 °C in an orbital incubator. Exposed solutions were subsequently centrifuged at 1000g for 15 min, and 100 μL was transferred to a fresh 96-well microtiter plate and spectrophotometrically read at 414 nm to determine hemoglobin release. Hexadecyltrimethylammonium bromide (8 mM) was used as a positive control (100% hemolysis) and PBS as a negative control (0% hemolysis). Samples were run in quadruplicate, and percentage hemolysis was calculated as follows [drawing 1]

Details of data set [2]: method as in earlier work. Particulars: ref 39 (Kruszewska et al.); cited from earlier work.
[3] abbreviates: 5 μg mL^–1, equine erythrocytes.
Where [4] appears, read: 25 μg mL^–1, equine erythrocytes.

What is called aqueous solubility is the dissolved amount per volume that the medium holds. For `CCCCCCCCCCCCCC[P+](CCCCCC)(CCCCCC)CCCCCC.O=S(=O)([N-]S(=O)(=O)C(F)(F)F)C(F)(F)F` [[P666 14][Tf2N], Trihexyl(tetradecyl)phosphonium bis(trifluoromethylsulfonyl)imide], in data set [1], the aqueous solubility is 260 µM. Moreover, the MBC with P. aeruginosa (PA01) (P. aeruginosa) and against S. aureus (ATCC 6538) was above 1000 μg mL^–1 each time. Besides, the MIC against P. aeruginosa (PA01) (P. aeruginosa) and in the data set with S. aureus (ATCC 6538) was above 1000 μg mL^–1 in each case. For the same compound, the “antibacterial activity / growth inhibition (in words)” value in the data set on P. aeruginosa (PA01) (P. aeruginosa, within the tested concentration range) is given as “no antimicrobial activity”; with S. aureus (ATCC 6538) (within the tested concentration range) it was “no antibacterial activity”.
As for Silver ions, in the data set on P. aeruginosa, the eradication of inoculum was at most 99.999%.
With `CCCCC(CC)COC(=O)CC(C(=O)OCC(CC)CCCC)S(=O)(=O)[O-].CCCCCCCCCCCCCC[P+](CCCCCCCC)(CCCCCCCC)CCCCCCCC` [[P888 14][AOT], trioctyl(tetradecyl)phosphonium docusate], the hemolysis with equine erythrocytes (setting [3]) is below 10%. Further, the hemolysis in the data set with equine erythrocytes (setting [4]) is 102.3%. Moreover, in the data set on P. aeruginosa (PA01), the “rise of MBC against P. aeruginosa relative to S. aureus” value turned out to be 128 fold and the “rise of MIC against P. aeruginosa relative to S. aureus” value stood at 64 fold. In the data set on P. aeruginosa (PA01) (P. aeruginosa), this compound displayed an MBC of 1000 μg mL^–1 and an MIC of 250 μg mL^–1. Also, in the data set with S. aureus (ATCC 6538), the “MIC potency relative to the other [AOT]-containing ionic liquids” value is reported as 16–128 fold, the MBC stood at 7.81 μg mL^–1 and the MIC stood at 3.91 μg mL^–1.
For the compound `CCCCC(CC)COC(=O)CC(C(=O)OCC(CC)CCCC)S(=O)(=O)[O-].CCCCCCCCCCCCCC[P+](CCCCCC)(CCCCCC)CCCCCC` [[P666 14][AOT], Trihexyl(tetradecyl)phosphonium docusate], in the data set with equine erythrocytes, the “hemolytic activity (in words)” value is given as “not hemolytic”. In addition, the MBC is on record as above 1000 μg mL^–1 against P. aeruginosa (PA01) (P. aeruginosa) and 1000 μg mL^–1 against S. aureus (ATCC 6538). In addition, the MIC is above 1000 μg mL^–1 in the data set on P. aeruginosa (PA01) (P. aeruginosa) and 500 μg mL^–1 against S. aureus (ATCC 6538).
In the case of `CCCCC(CC)COC(=O)CC(C(=O)OCC(CC)CCCC)S(=O)(=O)[O-].CCCCCCCCCCCCCCCCCC[P+](C)(CCCCCCCCCCCCCCCCCC)CCCCCCCCCCCCCCCCCC` [[P181818 1][AOT], trioctadecyl(methyl)phosphonium docusate], in the data set with equine erythrocytes, the “hemolytic activity (in words)” value is “not hemolytic”. In addition, in the data set on P. aeruginosa (PA01) (P. aeruginosa), the MBC was above 1000 μg mL^–1 and the MIC is listed as above 1000 μg mL^–1. In addition, in the data set with S. aureus (ATCC 6538), the MBC is recorded as 500 μg mL^–1 and the MIC is listed as 250 μg mL^–1.
As for `CCCCC(CC)COC(=O)CC(C(=O)OCC(CC)CCCC)S(=O)(=O)O` (stereo not shown) [sodium docusate], the MIC in data set [2] is given as 3000 μg mL^–1.
In the case of `CCCCC(CC)COC(=O)CC(C(=O)OCC(CC)CCCC)S(=O)(=O)[O-].CCCC[P+](CCO)(CCCC)CCCC` (stereo not shown) [[P444 2OH][AOT], tributyl(hydroxyethyl)phosphonium docusate], the values for the hemolysis in the data set with equine erythrocytes (setting [3]) and in the data set with equine erythrocytes (setting [4]) were below 10% and 99.39%, respectively. Moreover, the MBC is given as above 1000 μg mL^–1 in the data set with P. aeruginosa (PA01) (P. aeruginosa) and 250 μg mL^–1 in the data set with S. aureus (ATCC 6538). Further, the MIC in the data set with P. aeruginosa (PA01) (P. aeruginosa) is listed as above 1000 μg mL^–1; in the data set on S. aureus (ATCC 6538), 62.5 μg mL^–1.
